The source of these data is publication PMC4585333, “Novel Regulator of Acylated Ghrelin, CF801, Reduces Weight Gain, Rebound Feeding after a Fast, and Adiposity in Mice” (Frontiers in Endocrinology, 2015).

“Also recorded” adds a separate entry of the source.

Assay [1] in a line: Body weight gain. The following applies: 13 days. Type of assay: in vivo, male C57BL/6J mice. On the procedure:
(§1) In general, male C57BL/6J mice (The Jackson Laboratory, Bar Harbor, ME, USA) weighing 20–25 g were used as experimental subjects. Throughout the duration of the studies, mice were housed under standard laboratory conditions and received ad libitum access to standard laboratory mouse chow and tap water. Lights in the facility were set to go on and off at 12 h intervals with the lights going on at 7:00 a.m. In some experiments, mice also had ad libitum access to a high-fat diet containing 60% caloric content from fat (TD 06414; Harlan Teklad, Indianapolis, IN, USA) in addition to regular chow to measure dietary preferences. All procedures were approved by the Carleton University Animal Care Committee and followed the guidelines of the Canadian Council on Animal Care.
A second cohort of mice (n = 30) was acclimated to the laboratory conditions for 1 week prior to the onset of the experiment. Mice were housed individually and their body weight and food intake was recorded daily for a baseline period of 10 days. Given that ghrelin augments the intake of preferred diets ([28]), all mice received ad libitum access to a high-fat diet (60% of calories coming from fat), in addition to regular chow, to determine if CF801 altered dietary preference. Both chow and high-fat diet pellets were provided daily to mice ad libitum in pre-weighed amounts. Mice were then assigned to four different groups: non-injected control (NIC; n = 7), vehicle (0.9% saline) (VEH; n = 7), low-dose CF801 (11 μmol⋅kg^−1 – LD; n = 8) and high-dose CF801 (22 μmol⋅kg^−1 – HD; n = 8). Each day at 09:00 hours, mice were weighed and their food intake (both chow and high-fat diet) was recorded. After this, mice received an intraperitoneal injection of either CF801 or saline (except for the non-injected controls). Following the 13-day treatment period, half the animals in each group were sacrificed, while the remaining mice were allowed to recover from treatment. […] Each carcass was analyzed separately and measurements of total fat mass, total lean mass, and total water weight were obtained for each mouse.

Assay [2] deals with stomach-derived ghrelinoma (SG-1) cells. The experiment in a line: Cell-based ghrelin secretion assay (acyl ghrelin in medium, ELISA). On the procedure:
Ghrelin secretion studies were performed in stomach-derived ghrelinoma (SG-1) cells, cultured as described previously ([61], [62]). Cells were plated at a density of 5 × 10^4 cells/mL/well on to 24-well plates pre-coated with poly-D-lysine (day 0). On day 2, the cells were treated with the indicated concentrations of test compound CF801, 24 h ahead of the test period and with 50 μM sodium octanoate–bovine serum albumin (BSA), 16 h ahead of the test period. On day 3, the medium was aspirated and the cells were treated with the same concentrations of CF801 in 500 μL serum-free DMEM (Life Technologies, Grand Island, NY, USA) supplemented with 5 mM glucose and 50 μM sodium octanoate–BSA. After a 6-h incubation, the medium was collected, placed on ice, and immediately centrifuged at 800 × g for 5 min. Hydrochloric acid was added to the supernatant to achieve a final concentration of 0.1 N (for stabilization of acyl ghrelin) and stored at −80°C until analysis. Assay for acyl ghrelin and total were performed using commercial ELISA kits (EMD Millipore Corporation, Billerica, MA, USA) according to the manufacturer’s instructions and read in a PowerWave XS Microplate spectrophotometer (BioTek Instruments, Inc., Winooski, VT, USA).
SG-1 cells are derived from stomach ghrelinomas induced by expression of the SV40 large T-antigen under the preproghrelin promoter. These cells retain many of the features of ghrelin cells within primary cultures of gastric mucosal cells from mice ([61]). They also show elevated expression of both preproghrelin and GOAT mRNA with high levels of acylated ghrelin synthesis and secretion ([61]). In order to test CF801’s ability to reduce acyl ghrelin secretion, we performed an in vitro cell-based assay using an SG-1 cell line as previously described ([61], [62]).
Figure 1 CF801 inhibits acyl ghrelin secretion from SG-1 cells following 24 h of incubation. […] All values are expressed as mean ± SEM. *p < 0.05, ***p < 0.001 significant difference in acyl ghrelin concentrations with CF801 treatment when compared to untreated control (n = 6 wells).
Background: An ELISA detects its analyte on a solid surface through an enzyme-linked reagent.

Assay [3] can be described thus: Rebound food intake after a fast. It counts as in vivo, male C57BL/6J mice. On the procedure:
as §1
Mice (n = 16) were singly housed and given free access to water and regular chow for a 4-day baseline period. After this, mice were assigned to one of three groups: vehicle (n = 5), CF801 low dose (n = 5; 11 μmol⋅kg^−1 – LD), or CF801 high dose (n = 6; 22 μmol⋅kg^−1 – HD). These mice were injected intraperitoneally once a day for 4 days starting at 10:00 a.m. Following 4 days of treatment, animals were tested for rebound feeding after a fast. To do this, we removed the food from each cage 1 h before lights out (6:00 p.m.), and food was returned to the cage the following day 1 h after the last injection. Food intake was then monitored every hour for 4 h to determine the effects of CF801 on rebound feeding. Animals were then sacrificed by rapid decapitation to collect trunk blood and other tissues. Two samples were lost during sample collection, so the number of samples used to measure acylated ghrelin was reduced to n = 14.

Consider GSAFLSPEHQRK KRRQRRR-NH2 [CF801], for which the “weight gain, low dose vs NIC and VEH” value in assay [1] (11 μmol⋅kg^−1 i.p. daily, not statistically significant) is “tended to have lower weight gain than control NIC (p = 0.092) and VEH-treated mice (p = 0.065)”. Moreover, in assay [1] (22 μmol⋅kg^−1 i.p. daily, vs saline or non-injected, F(3,29) = 3.098, p < 0.05, partial eta^2 = 0.271), the “weight gain, high dose” value is listed as “decrease in weight gain”. Moreover, the “weight gain, low dose vs high dose” value in assay [1] (11 vs 22 μmol⋅kg^−1 i.p. daily, p > 0.05) is reported as “no differences in weight gain”. In addition, the “acyl ghrelin secretion, 100 μM” value in assay [2] (100 μM CF801, 24 h incubation, vs untreated control, n = 6 wells, p < 0.05) is “Significant decreases in secretion; also recorded: significant reductions in acyl ghrelin secretion”. The “acyl ghrelin secretion, 300 μM” value in assay [2] (300 μM CF801, 24 h incubation, vs untreated control, n = 6 wells, p < 0.05) is listed as “Significant decreases in secretion; also recorded: significant reductions in acyl ghrelin secretion”. In assay [2] (6 h incubation, p > 0.05, preliminary, data not shown, even at highest concentration of 300 μM), the “acyl ghrelin secretion, 6-h incubation” value is given as “No significant effects; also recorded: no effect on acyl ghrelin secretion”. Besides, the “food consumed during first hour of refeeding, high dose” value in assay [3] (22 μmol⋅kg^−1 i.p., after fast, F(2,24) = 2.394, p < 0.05, partial eta^2 = 0.22) is “lower amount of food consumed”. Moreover, the “total chow consumed during 4-h food access, high dose vs saline” value in assay [3] (22 μmol⋅kg^−1 i.p., HD vs saline, p < 0.01, Fisher LSD) is listed as “statistically significant”. The “total chow consumed during 4-h food access, treatment effect” value in assay [3] (after fast, F(2,24) = 4.527, partial eta^2 = 0.411, p > 0.05 as printed) is reported as “significant overall dose-dependent treatment effect”. The “food consumed, other time points” value in assay [3] (any time point of 4 h refeeding other than first hour, p > 0.05) was “No significant effects were seen at any other time point examined”. The “food intake or weight gain during first 3 days of treatment” value in assay [3] (i.p. once daily, 11 and 22 μmol⋅kg^−1, data not shown, p > 0.05) is “No effects”.
